Experimental data taken from ChEMBL document CHEMBL2074364, “Reversal of multidrug resistance of cancer through inhibition of P-glycoprotein by 5-bromotetrandrine” (Cancer Chemother Pharmacol, 2005).

Assays:
[1] = biological target: T1, ATP-dependent translocase ABCB1 (Homo sapiens, UniProt P08183); test: TP_TRANSPORTER: cell accumulation of doxorubicin in MCF-7/Dox cells; format: functional, cell-based
[2] = biological target: T1, ATP-dependent translocase ABCB1; test: TP_TRANSPORTER: increase in Doxorubicin intracellular accumulation in MCF-7/Dox cells; format: functional, cell-based

T1 sequence (P08183 whole entry): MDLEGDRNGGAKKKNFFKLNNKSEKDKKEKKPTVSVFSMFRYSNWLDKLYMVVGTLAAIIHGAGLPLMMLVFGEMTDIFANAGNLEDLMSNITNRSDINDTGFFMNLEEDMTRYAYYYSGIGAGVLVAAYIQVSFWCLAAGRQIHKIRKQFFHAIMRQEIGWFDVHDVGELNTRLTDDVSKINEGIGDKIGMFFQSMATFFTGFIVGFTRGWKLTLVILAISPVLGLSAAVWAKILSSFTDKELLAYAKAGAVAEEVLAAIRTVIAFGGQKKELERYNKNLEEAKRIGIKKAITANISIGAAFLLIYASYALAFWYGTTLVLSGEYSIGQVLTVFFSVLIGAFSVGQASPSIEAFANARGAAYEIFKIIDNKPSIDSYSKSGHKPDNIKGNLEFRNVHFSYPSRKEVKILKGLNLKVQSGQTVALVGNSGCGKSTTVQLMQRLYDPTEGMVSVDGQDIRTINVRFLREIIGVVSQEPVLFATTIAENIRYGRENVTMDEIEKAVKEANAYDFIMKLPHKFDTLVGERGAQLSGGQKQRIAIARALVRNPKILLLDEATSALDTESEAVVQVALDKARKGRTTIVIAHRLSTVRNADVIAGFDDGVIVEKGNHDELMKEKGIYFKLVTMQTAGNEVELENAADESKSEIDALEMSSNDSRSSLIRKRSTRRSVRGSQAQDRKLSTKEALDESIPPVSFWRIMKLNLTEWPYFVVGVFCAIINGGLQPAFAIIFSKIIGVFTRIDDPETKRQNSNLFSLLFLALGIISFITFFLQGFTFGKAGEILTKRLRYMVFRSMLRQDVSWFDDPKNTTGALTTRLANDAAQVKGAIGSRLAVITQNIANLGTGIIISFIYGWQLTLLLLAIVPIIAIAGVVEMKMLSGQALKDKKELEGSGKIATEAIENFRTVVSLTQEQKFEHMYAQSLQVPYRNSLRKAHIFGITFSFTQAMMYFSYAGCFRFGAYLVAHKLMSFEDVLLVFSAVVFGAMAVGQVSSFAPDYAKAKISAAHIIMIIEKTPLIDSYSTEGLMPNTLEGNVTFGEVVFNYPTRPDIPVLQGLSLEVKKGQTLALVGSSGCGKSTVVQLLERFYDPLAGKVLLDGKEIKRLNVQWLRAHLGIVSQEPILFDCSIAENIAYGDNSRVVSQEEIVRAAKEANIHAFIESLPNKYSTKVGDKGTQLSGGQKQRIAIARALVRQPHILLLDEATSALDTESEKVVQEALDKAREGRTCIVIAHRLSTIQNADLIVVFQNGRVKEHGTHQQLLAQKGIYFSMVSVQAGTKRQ

COc1ccc2cc1Oc1ccc(cc1)C[C@@]1(C)c3cc(c(OC)cc3CCN1C)Oc1c(OC)c(OC)c(Br)c3c1[C@](C)(C2)N(C)CC3 [BROMOTETRANDRINE]
Activity [1]: inhibitor [+] | Activity [2]: inhibitor [+]
